Patent US20250011404A1, “TARGETING APOE ENHANCES T-CELL KILLING IN CANCER IMMUNOTHERAPY” (Children's National Medical Center, priority 2021, published 2025)
“Also recorded” adds a separate entry of the source.

Assays:
[1] = system: vaccinated splenocytes co-cultured with Myc inhibited B16 tumor cells; assay: IFNγ ELISA, vaccinated splenocytes co-cultured with immunogenic B16 cells; assay type: cell-based, mouse; details: vaccinated WT splenocytes + Myc-inhibited B16 cells, 48 hr, in presence of COG133, dose dependent
Protocol: To further investigate the influence of tumor secreted apoE on immune cell function, immunogenic B16 tumor cells (B16 cells treated with Myc inhibitors (0.25 μM BET+0.25 μM JQ1 for 4 days) were irradiated at 60 Gray and co-cultured with naïve C57/BL6 splenocytes in the presence of either apoE mimetic COG133 at 0.3, 3 and 9 μM or anti-APOE blocking antibody at 1, 10 and 30 μg/ml concentrations. Prior work has shown the immunogenic effect of treating cancer cells with Myc inhibitors and irradiation. IFNγ production was quantified by ELISA at 48 h. Splenocytes produced high levels of IFNγ when co-cultured with Myc-inhibited immunogenic B16 cells as shown in FIGS. 3A-3C. Exposure of these cells to apoE mimetic COG133 repressed IFNγ production (6-fold reduction) (FIG. 3A), while the presence of Anti-APOE antibody enhanced IFNγ production (3-fold increase) (FIG. 3B). We also tested IFNγ production from vaccinated splenocytes following co-culture with treated and untreated B16 cells in the presence of COG 133. […] In addition to IFNγ, we also quantified other cytokine/chemokines using ProcartaPlex multiplex immunoassay. […] In addition, using ProcartaPlex multiplex immunoassay, we also quantified other cytokines/chemokines produced in the reaction. […] Readings were measured at 450 nm using the EnSpire 2300 Multilabel plate reader (Perkin Elmer, Waltham, Massachusetts, US).

[2] = system: vaccinated splenocytes from lrp8−/− mice; assay: Cytokine production of vaccinated splenocytes from lrp8−/− mice co-cultured with immunogenic B16 cells (ELISA, multiplex); assay type: cell-based, mouse
Source text: To functionally define the role of the lrp8 receptor engagement in apoE suppression, vaccinated splenocytes from lrp8^−/− mice were isolated. These cells were co-cultured with BET/JQ1 treated (Myc-suppressed) immunogenic B16 cells for 48 hr with or without exposure to the apoE mimetic COG133. […] In addition, using ProcartaPlex multiplex immunoassay, we also quantified other cytokines/chemokines produced in the reaction. […] These included effector function: IFNγ; stimulator function, IL18, GM-CSF, G-CSF; inflammatory cytokines: IL2, IL3, IL4, IL5, IL9, IL13, IL23, IL12p70; chemo attractant factors: MCP-1, MCP3, MIP-1α, CCL-5 (Rantes); and regulatory factors: IL6, IL-10 (P<0.05). […] Cell culture supernatant was collected after centrifuge at 1,200 rpm for 10 min at 4° C. The concentrations of the following immune molecules were determined using the mouse Cytokine & Chemokine 36-plex ProcartaPlex Panel, a magnetic bead-based multiplex immunoassay (Thermo Scientific) following our previous protocol(19). Briefly, cell culture supernatant samples were mixed with antibody-linked polystyrene beads on a 96-well plate and incubated at room temperature (RT) for 2 h on an orbital shaker at 500 rpm. After washing, plates were incubated with biotinylated detection antibody for 30 min at RT. Plates were then washed twice and then labeled beads were resuspended in streptavidin-PE. Each sample was measured in duplicate along with standards (8-point dilutions) and the buffer control. Plates were read using a Luminex Bio-plex 200 system (Bio-Rad Corp.) for quantitative analysis. WT and apoE^−/− mice or WT and lrp8^−/− mice, were inoculated with either WT B16 or apoE^−/− B16 cells, with anti-CTLA4 antibody on day 0. These vaccinated splenocytes (VS) were harvested on day 7 and co-cultured with either WT B16 or apoE^−/− B16 cells for 48 hr, following which IFNγ levels in media were compared with ELISA assay. […] Readings were measured at 450 nm using the EnSpire 2300 Multilabel plate reader (Perkin Elmer, Waltham, Massachusetts, US).

For “COG133: a fragment of apoE peptide, which competes with the apoE holoprotein for binding the LDL receptors and acts as an apoE mimetic”, the “IFNγ production from vaccinated splenocytes” value [1] was “inhibited; also recorded: inhibitory; also recorded: significantly suppressed”, the “IFNγ production from vaccinated splenocytes” value ([1]; listed as COG 133) was “suppressed” and the “detectable cytokines with pattern similar to IFNγ: inhibition in WT mice, reversed in lrp8−/− splenocytes” value ([2]; ProcartaPlex multiplex, with or without COG133, 48 hr) was “Seventeen out of 27”. The “IFNγ production from lrp8−/− vaccinated splenocytes” value ([2]; co-culture with BET/JQ1 treated B16 cells 48 hr, with COG133) was “inhibitory effect was lacking; also recorded: suppression did not occur” and the “IL-13, IL-4, IL22, IL18, MCP-1, RANTES and Gro-α, lrp8−/− vaccinated splenocytes” value ([2]; co-culture with Myc-inhibited B16 cells 48 hr, multiplex immunoassay (FIG. 18)) was “suppressive effect is diminished”.
